Here are results for eight compounds from patent publication US20100311714A1, “1H-IMIDAZO[4,5-c]QUINOLINONE COMPOUNDS” (priority 2009, published 2010).

In the experiment the test system is PKB Ser473 phosphorylation in Rat1-myr-HA-p110 delta cells. Description: Reverse protein array, PKB Ser473 phosphorylation in Rat1-myr-HA-p110 delta cells. The experiment is classed as cell-based. The conditions noted are these: Rattus norvegicus, 0.5 h, 30 minutes compound incubation, read-out: p-PKB/IC50_delta.
As for `CNc1ncc(-c2ccc3ncc4c(c3c2)n(-c2ccc(N3CC[C@H](O)C3)nc2C)c(=O)n4C)cn1` [Example 32.1, 1-[6-((S)-3-Hydroxy-pyrrolidin-1-yl)-2-methyl-pyridin-3-yl]-3-methyl-8-(2-methylamino-pyrimidin-5-yl)-1,3-dihydro-imidazo[4,5-c]quinolin-2-one], the IC50 worked out at 17.7 nM.

As for `CNc1ncc(-c2ccc3ncc4c(c3c2)n(-c2ccc(N3CC[C@H](O)C3)nc2C)c(=O)n4C)cc1F` [Example 32.2, 8-(5-Fluoro-6-methylamino-pyridin-3-yl)-1-[6-((S)-3-hydroxy-pyrrolidin-1-yl)-2-methyl-pyridin-3-yl]-3-methyl-1,3-dihydro-imidazo[4,5-c]quinolin-2-one], the IC50 amounted to 30.5 nM.

Consider `COc1ncc(-c2ccc3ncc4c(c3c2)n(-c2ccc(N3CC[C@H](O)C3)nc2C)c(=O)n4C)c(OC)n1` [Example 32.3, 8-(2,4-Dimethoxy-pyrimidin-5-yl)-1-[6-((S)-3-hydroxy-pyrrolidin-1-yl)-2-methyl-pyridin-3-yl]-3-methyl-1,3-dihydro-imidazo[4,5-c]quinolin-2-one], for which the IC50 was determined as 59 nM.

Turning to `CNc1ncc(-c2ccc3ncc4c(c3c2)n(-c2ccc(N3CC[C@H](O)C3)nc2C)c(=O)n4C)cc1C(F)(F)F` [Example 32.5, 1-[6-((S)-3-Hydroxy-pyrrolidin-1-yl)-2-methyl-pyridin-3-yl]-3-methyl-8-(6-methylamino-5-trifluoromethyl-pyridin-3-yl)-1,3-dihydro-imidazo[4,5-c]quinolin-2-one], the IC50 was determined as 16 nM.

For `Cc1nc(N2CC[C@H](O)C2)ccc1-n1c(=O)n(C)c2cnc3ccc(-c4cncc(OC(C)C)c4)cc3c21` [Example 32.8, 1-[6-((S)-3-Hydroxy-pyrrolidin-1-yl)-2-methyl-pyridin-3-yl]-8-(5-isopropoxy-pyridin-3-yl)-3-methyl-1,3-dihydro-imidazo[4,5-c]quinolin-2-one], the IC50 turned out to be 95.3 nM.

For `Cc1nc(C(F)(F)F)ccc1-n1c(=O)n(C)c2cnc3ccc(-c4cncc(C(C)(C)O)c4)cc3c21` [Example 33.1, 8-[5-(1-Hydroxy-1-methyl-ethyl)-pyridin-3-yl]-3-methyl-1-(2-methyl-6-trifluoromethyl-pyridin-3-yl)-1,3-dihydro-imidazo[4,5-c]quinolin-2-one], the IC50 amounted to 43 nM.

On to `CCNc1ncc(-c2ccc3ncc4c(c3c2)n(-c2ccc(N3CC[C@@H](O)C3)nc2C)c(=O)n4C)cc1C(F)(F)F` [Example 34.2, 8-(6-Ethylamino-5-trifluoromethyl-pyridin-3-yl)-1-[6-((R)-3-hydroxy-pyrrolidin-1-yl)-2-methyl-pyridin-3-yl]-3-methyl-1,3-dihydro-imidazo[4,5-c]quinolin-2-one], for which the IC50 stood at 39.9 nM.

For the compound `CCNc1ncc(-c2ccc3ncc4c(c3c2)n(-c2ccc(N3CC[C@@H](O)C3)nc2C)c(=O)n4C)cc1COCC` [Example 34.4, 8-(5-Ethoxymethyl-6-ethylamino-pyridin-3-yl)-1-[6-((R)-3-hydroxy-pyrrolidin-1-yl)-2-methyl-pyridin-3-yl]-3-methyl-1,3-dihydro-imidazo[4,5-c]quinolin-2-one], the IC50 was determined as 253 nM.
